Results: patent US20240139167A1, “LYSOSOME-ASSOCIATED MEMBRANE PROTEIN TARGETING COMPOUNDS AND USES THEREOF” (HADASIT MEDICAL RESEARCH SERVICES AND DEVELOPMENT LTD., priority 2021, published 2024)

Tested on: PD patient-derived skin fibroblasts
Assay: Autophagic flux in Pompe disease fibroblasts
Assay type: cell-based, human
Experimental: FIG. 15 includes a micrograph and a vertical bar graph showing autophagic flux in PD patient-derived skin fibroblasts, serum starved and treated (or not) with 50 μM 144DG11 (indicated as comp. A).
144DG11 can activate autophagy in the lysosomal storage disease (LSD) Pompe disease (PD) in which autophagy is perturbed (FIG. 15). […] This ratio serves as the most accepted marker for autophagy and autophagic flux. […] These observations indicate that, as in the GSD APBD, 144DG11 can activate autophagy also in the typical LSD PD in which autophagy is disturbed.

## CC[C@]1(O)C[C@@H]2CN(CCc3c([nH]c4ccccc34)[C@@](C(=O)OC)(c3cc4c(cc3OC)N(C)[C@H]3[C@@](O)(C(=O)OC)[C@H](OC(C)=O)[C@]5(CC)C=CCN6CC[C@]43[C@@H]65)C2)C1 [vinblastine, reference compound]
  ratio of LC3II to LC3I: increased
